Common to all, as to assay type: biochemical
Assay [1] concerns the target T1, recombinant soluble tissue factor and recombinant human factor VIIa (TF-VIIa) (Homo sapiens, UniProt P08709).
T1 construct: conversion of coagulation factor VII to VIIa by factor Xa; purchased American Diagnostica, Greenwich CT; host or cells: soluble TF made in house in E. coli
The assay is described as follows: TF-VIIa assay (chromogenic substrate hydrolysis). Particulars: reported only as less than or greater than 0.1 uM. On the procedure: In this assay 100 nM recombinant soluble tissue factor and 2 nM recombinant human factor VIIa are added to a 96-well assay plate containing 0.4 mM of the substrate, N-methylsulfonyl-D-phe-gly-arg-p-nitroaniline and either inhibitor or buffer (5 mM CaCl2, 50 mM Tris-HCl, pH 8.0, 100 mM NaCl, 0.1% BSA). […] Percent inhibition of TF-VIIa activity is calculated from OD405 nm value from the experimental and control sample.
(§1) Recombinant human VIIa was purchased from American Diagnostica, Greenwich CT and chromogenic substrate N-methylsulfonyl-D-phe-gly-arg-p-nitroaniline was prepared by American Peptide Company, Inc., Sunnyvale, Calif. Factor Xa was obtained from Enzyme Research Laboratories, South Bend Ind., thrombin from Calbiochem, La Jolla, Calif., and trypsin and L-BAPNA from Sigma, St. Louis Mo.

The target in a further assay is T2, Human factor Xa (Homo sapiens, UniProt P00742).
T2 construct: purchased Enzyme Research Laboratories, South Bend Ind
T2 sequence (P00742 235-488 limits assumed): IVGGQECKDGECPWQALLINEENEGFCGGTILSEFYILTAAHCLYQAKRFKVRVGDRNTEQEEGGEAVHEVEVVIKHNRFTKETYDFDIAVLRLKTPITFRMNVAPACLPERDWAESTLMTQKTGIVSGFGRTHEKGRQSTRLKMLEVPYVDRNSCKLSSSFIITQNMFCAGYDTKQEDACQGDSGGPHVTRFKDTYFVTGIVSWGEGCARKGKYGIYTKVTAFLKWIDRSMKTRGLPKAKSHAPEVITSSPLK
T2 sequence (P00742 41-179 limits assumed): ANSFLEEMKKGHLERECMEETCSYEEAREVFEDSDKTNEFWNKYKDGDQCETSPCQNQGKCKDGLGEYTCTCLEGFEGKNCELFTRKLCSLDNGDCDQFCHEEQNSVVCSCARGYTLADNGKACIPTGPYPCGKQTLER
The assay is described as follows: Xa assay (chromogenic substrate S-2765). The conditions noted are these: reported only as less than or greater than 30 uM; read-out: Factor Xa (II) IC50. On the procedure:
Human factor Xa (0.3 nM) and 0.15 mM -a-Benzyloxycarbonyl-D-arginyl-L-glycyl-L-arginine-p-nitroaniline-dihydrochloride (S-2765) are added to a 96-well assay plate containing either inhibitor or buffer (50 mM Tris-HCl, pH 8.0, 100 mM NaCl, 0.1% BSA). The reaction, in a final volume of 100 ul is measured immediately at 405 nm to determine background absorbance. The plate is incubated at room temperature for 60 min, at which time the rate of hydrolysis of the substrate is measured by monitoring the reaction at 405 nm for the release of p-nitroaniline. Percent inhibition of Xa activity is calculated from OD405 nm value from the experimental and control sample.
Recombinant soluble TF, consisting of amino acids 1-219 of the mature protein sequence was expressed in E. coli and purified using a Mono Q Sepharose FPLC. Recombinant human VIIa was purchased from American Diagnostica, Greenwich CT and chromogenic substrate N-methylsulfonyl-D-phe-gly-arg-p-nitroaniline was prepared by American Peptide Company, Inc., Sunnyvale, Calif. Factor Xa was obtained from Enzyme Research Laboratories, South Bend Ind., thrombin from Calbiochem, La Jolla, Calif., and trypsin and L-BAPNA from Sigma, St. Louis Mo. The chromogenic substrates S-2765 and S-2238 were purchased from Chromogenix, Sweden.

The target in another assay is T3, Human thrombin (Homo sapiens, UniProt P00734).
T3 construct: converts prothrombin (II) to thrombin (IIa); purchased Calbiochem, La Jolla, Calif
The assay is described as follows: Thrombin assay (chromogenic substrate). The conditions noted are these: reported only as less than or greater than 30 uM; read-out: Thrombin (II) IC50. On the procedure:
Percent inhibition of thrombin activity is calculated from OD405 nm value from the experimental and control sample.
as §1

pIC50: −log10 of the molar value.

T1 sequence (P08709 213-466 limits assumed): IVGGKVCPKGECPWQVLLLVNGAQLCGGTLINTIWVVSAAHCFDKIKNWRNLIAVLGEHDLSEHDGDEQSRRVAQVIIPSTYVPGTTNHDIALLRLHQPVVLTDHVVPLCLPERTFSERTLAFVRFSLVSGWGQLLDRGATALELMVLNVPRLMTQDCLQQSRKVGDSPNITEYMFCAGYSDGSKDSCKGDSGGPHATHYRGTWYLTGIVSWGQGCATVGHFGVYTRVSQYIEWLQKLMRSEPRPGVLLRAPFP
T1 sequence (P08709 61-212 limits assumed): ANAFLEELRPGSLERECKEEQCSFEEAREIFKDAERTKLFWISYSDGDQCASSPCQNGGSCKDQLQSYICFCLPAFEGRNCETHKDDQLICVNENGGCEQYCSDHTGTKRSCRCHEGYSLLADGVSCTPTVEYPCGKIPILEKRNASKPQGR
T1 sequence (P13726 33-251 partner limits assumed): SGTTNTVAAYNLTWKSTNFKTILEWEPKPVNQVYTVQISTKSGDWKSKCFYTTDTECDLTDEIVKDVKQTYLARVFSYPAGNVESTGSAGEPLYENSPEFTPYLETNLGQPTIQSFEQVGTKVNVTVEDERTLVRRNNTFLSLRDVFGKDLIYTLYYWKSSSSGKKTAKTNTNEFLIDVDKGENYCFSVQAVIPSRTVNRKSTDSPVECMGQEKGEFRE

For `COC(=O)c1cc(N)cc(-c2ncc(NC(C)C)c(=O)n2CC(=O)NCc2ccc(C(=N)N)cc2)c1` [Example 1], the pIC50 in assay [1] is more than 7.00; at Human factor Xa it was less than 4.52; at Human thrombin, less than 4.52.

On to `CC(C)Nc1cnc(-c2cc(N)cc(C(=O)O)c2)n(CC(=O)NCc2ccc(C(=N)N)cc2)c1=O` [Example 2], for which the pIC50 in assay [1] was more than 7.00; at Human factor Xa it was less than 4.52; at Human thrombin, less than 4.52.

Consider `CC(C)CNC(=O)c1cc(N)cc(-c2cnc(NC(C)C)c(=O)n2CC(=O)NCc2ccc(C(=N)N)cc2)c1` [Example 5], for which the pIC50 in assay [1] was more than 7.00; at Human factor Xa, less than 4.52; at Human thrombin, more than 4.52.

Consider `CNC(=O)c1cc(N)cc(-c2cnc(NC(C)C)c(=O)n2CC(=O)NCc2ccc(C(=N)N)cc2)c1` [Example 38], for which the pIC50 in assay [1] was more than 7.00; at Human factor Xa, less than 4.52.

As to `COCCNC(=O)c1cc(N)cc(-c2cnc(NC(C)C)c(=O)n2CC(=O)NCc2ccc(C(=N)N)cc2)c1` [Example 39], the pIC50 in assay [1] is more than 7.00; on Human factor Xa it was less than 4.52.

For `CC(C)Nc1ncc(-c2cc(N)cc(C(=O)NCCN3CCOCC3)c2)n(CC(=O)NCc2ccc(C(=N)N)cc2)c1=O` [Example 40], the pIC50 in assay [1] was more than 7.00; on Human factor Xa, less than 4.52.

In the case of `CC(C)Nc1ncc(-c2cc(N)cc(C(=O)NCCN3CCCC3)c2)n(CC(=O)NCc2ccc(C(=N)N)cc2)c1=O` [Example 41], the pIC50 in assay [1] is more than 7.00; at Human factor Xa it was less than 4.52.

`CONC(=O)c1cc(N)cc(-c2cnc(NC(C)C)c(=O)n2CC(=O)NCc2ccc(C(=N)N)cc2)c1` [Example 42]: the pIC50 is more than 7.00 in assay [1] and less than 4.52 at Human factor Xa.

As to `CC(C)Nc1ncc(-c2cc(N)cc(C(=O)NC(C)(CO)CO)c2)n(CC(=O)NCc2ccc(C(=N)N)cc2)c1=O` [Example 43], the pIC50 is more than 7.00 in assay [1] and less than 4.52 at Human factor Xa.

As for `CCOC(=O)c1cc(N)cc(-c2cnc(NC(C)C)c(=O)n2CC(=O)NCc2ccc(C(=N)N)cc2)c1` [Example 44], the figures for the pIC50 (in assay [1]; at Human factor Xa) were more than 7.00 and less than 4.52, respectively.

`CC(C)Nc1ncc(-c2cc(N)cc(C(=O)NC(C)(C)CCO)c2)n(CC(=O)NCc2ccc(C(=N)N)cc2)c1=O` [Example 45]: the pIC50 is more than 7.00 in assay [1] and less than 4.52 on Human factor Xa.

Take `CC(C)Nc1ncc(-c2cc(N)cc(C(N)=O)c2)n(CC(=O)NCc2ccc(C(=N)N)cc2)c1=O` [Example 47]: the pIC50 was more than 7.00 in assay [1] and less than 4.52 on Human factor Xa.

As for `CCCCN(CCCC)c1cc(N)cc(-c2cnc(NC(C)C)c(=O)n2CC(=O)NCc2ccc(C(=N)N)cc2)c1` [Example 149], the pIC50 in assay [1] is less than 7.00.

Take `CC(C)Nc1ncc(-c2cc(N)cc(NC(=O)C3CCNCC3)c2)n(CC(=O)NCc2ccc(C(=N)N)cc2)c1=O` [Example 150]: in assay [1], the pIC50 is more than 7.00.

Regarding `CC(C)Nc1ncc(-c2cc(N)cc(NC(=O)C3CCCNC3)c2)n(CC(=O)NCc2ccc(C(=N)N)cc2)c1=O` (stereo not drawn) [Example 151], in assay [1], the pIC50 is more than 7.00.

With `CC(C)Nc1ccc(-c2cc(N)cc(N)c2)n(CC(=O)NCc2ccc(C(=N)N)cc2)c1=O` [Example 163], the pIC50 in assay [1] is less than 7.00.

For `N=C(N)c1c(O)c(F)c(CNC(=O)Cn2c(-c3cc(N)cc(C(F)(F)F)c3)cnc(NC3CC3)c2=O)c(F)c1F` [Example 243], the pIC50 was less than 7.00 in assay [1] and less than 4.52 at Human thrombin.

For `CC[C@@H](C)NC(=O)c1cc(N)cc(-c2cnc(NC(C)C)c(=O)n2CC(=O)NCc2c(O)cc(C(=N)N)cc2OCC(=O)O)c1` [Example 244], the negative logarithm of the IC50 (pIC50) is less than 7.00 in assay [1] and less than 4.52 at Human thrombin.

Regarding `CC[C@@H](C)NC(=O)c1cc(N)cc(-c2cnc(N[C@@H](C)CO)c(=O)n2CC(=O)NCc2ccc(C(=N)N)cc2)c1` [Example 248], the pIC50 is more than 7.00 in assay [1] and more than 4.52 on Human thrombin.

Take `CC[C@@H](C)NC(=O)c1cc(N)cc(-c2cnc(NC(C)C)c(=O)n2CC(=O)NCc2c(O)cc(C(=N)N)cc2OCc2cccnc2)c1` [Example 255]: the pIC50 is less than 7.00 in assay [1] and less than 4.52 on Human thrombin.

These data come from patent publication US20040106626A1, “6-Membered unsaturated heterocyclic compounds useful for selective inhibition of the coagulation cascade” (Pharmacia Corporation, priority 2001, published 2004).
